Data from patent publication US20090118332A1, “Therapeutic Agents - 551” (AstraZeneca AB, priority 2006, published 2009).

Biological target: T1, human Fatty Acid Synthase (Homo sapiens, UniProt P49327)
T1 construct: made in house
Assay: Human FAS enzyme assay (decrease in NADPH fluorescence)
Assay type: biochemical
Conditions: % inhibition at a concentration of 100 μmolar
How it was run: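 In-house human FAS was preincubated with compound and NADPH for 15 min at room temperature in 0.1 M Tris pH 7.5 with EDTA, glutathione and BSA. Malonyl CoA and acetyl CoA (500 μM and 150 μM in the added mix) were then added for 60 min. IC50 came from time-zero-subtracted NADPH fluorescence (340/460 nm).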

T1 sequence (P49327 whole entry): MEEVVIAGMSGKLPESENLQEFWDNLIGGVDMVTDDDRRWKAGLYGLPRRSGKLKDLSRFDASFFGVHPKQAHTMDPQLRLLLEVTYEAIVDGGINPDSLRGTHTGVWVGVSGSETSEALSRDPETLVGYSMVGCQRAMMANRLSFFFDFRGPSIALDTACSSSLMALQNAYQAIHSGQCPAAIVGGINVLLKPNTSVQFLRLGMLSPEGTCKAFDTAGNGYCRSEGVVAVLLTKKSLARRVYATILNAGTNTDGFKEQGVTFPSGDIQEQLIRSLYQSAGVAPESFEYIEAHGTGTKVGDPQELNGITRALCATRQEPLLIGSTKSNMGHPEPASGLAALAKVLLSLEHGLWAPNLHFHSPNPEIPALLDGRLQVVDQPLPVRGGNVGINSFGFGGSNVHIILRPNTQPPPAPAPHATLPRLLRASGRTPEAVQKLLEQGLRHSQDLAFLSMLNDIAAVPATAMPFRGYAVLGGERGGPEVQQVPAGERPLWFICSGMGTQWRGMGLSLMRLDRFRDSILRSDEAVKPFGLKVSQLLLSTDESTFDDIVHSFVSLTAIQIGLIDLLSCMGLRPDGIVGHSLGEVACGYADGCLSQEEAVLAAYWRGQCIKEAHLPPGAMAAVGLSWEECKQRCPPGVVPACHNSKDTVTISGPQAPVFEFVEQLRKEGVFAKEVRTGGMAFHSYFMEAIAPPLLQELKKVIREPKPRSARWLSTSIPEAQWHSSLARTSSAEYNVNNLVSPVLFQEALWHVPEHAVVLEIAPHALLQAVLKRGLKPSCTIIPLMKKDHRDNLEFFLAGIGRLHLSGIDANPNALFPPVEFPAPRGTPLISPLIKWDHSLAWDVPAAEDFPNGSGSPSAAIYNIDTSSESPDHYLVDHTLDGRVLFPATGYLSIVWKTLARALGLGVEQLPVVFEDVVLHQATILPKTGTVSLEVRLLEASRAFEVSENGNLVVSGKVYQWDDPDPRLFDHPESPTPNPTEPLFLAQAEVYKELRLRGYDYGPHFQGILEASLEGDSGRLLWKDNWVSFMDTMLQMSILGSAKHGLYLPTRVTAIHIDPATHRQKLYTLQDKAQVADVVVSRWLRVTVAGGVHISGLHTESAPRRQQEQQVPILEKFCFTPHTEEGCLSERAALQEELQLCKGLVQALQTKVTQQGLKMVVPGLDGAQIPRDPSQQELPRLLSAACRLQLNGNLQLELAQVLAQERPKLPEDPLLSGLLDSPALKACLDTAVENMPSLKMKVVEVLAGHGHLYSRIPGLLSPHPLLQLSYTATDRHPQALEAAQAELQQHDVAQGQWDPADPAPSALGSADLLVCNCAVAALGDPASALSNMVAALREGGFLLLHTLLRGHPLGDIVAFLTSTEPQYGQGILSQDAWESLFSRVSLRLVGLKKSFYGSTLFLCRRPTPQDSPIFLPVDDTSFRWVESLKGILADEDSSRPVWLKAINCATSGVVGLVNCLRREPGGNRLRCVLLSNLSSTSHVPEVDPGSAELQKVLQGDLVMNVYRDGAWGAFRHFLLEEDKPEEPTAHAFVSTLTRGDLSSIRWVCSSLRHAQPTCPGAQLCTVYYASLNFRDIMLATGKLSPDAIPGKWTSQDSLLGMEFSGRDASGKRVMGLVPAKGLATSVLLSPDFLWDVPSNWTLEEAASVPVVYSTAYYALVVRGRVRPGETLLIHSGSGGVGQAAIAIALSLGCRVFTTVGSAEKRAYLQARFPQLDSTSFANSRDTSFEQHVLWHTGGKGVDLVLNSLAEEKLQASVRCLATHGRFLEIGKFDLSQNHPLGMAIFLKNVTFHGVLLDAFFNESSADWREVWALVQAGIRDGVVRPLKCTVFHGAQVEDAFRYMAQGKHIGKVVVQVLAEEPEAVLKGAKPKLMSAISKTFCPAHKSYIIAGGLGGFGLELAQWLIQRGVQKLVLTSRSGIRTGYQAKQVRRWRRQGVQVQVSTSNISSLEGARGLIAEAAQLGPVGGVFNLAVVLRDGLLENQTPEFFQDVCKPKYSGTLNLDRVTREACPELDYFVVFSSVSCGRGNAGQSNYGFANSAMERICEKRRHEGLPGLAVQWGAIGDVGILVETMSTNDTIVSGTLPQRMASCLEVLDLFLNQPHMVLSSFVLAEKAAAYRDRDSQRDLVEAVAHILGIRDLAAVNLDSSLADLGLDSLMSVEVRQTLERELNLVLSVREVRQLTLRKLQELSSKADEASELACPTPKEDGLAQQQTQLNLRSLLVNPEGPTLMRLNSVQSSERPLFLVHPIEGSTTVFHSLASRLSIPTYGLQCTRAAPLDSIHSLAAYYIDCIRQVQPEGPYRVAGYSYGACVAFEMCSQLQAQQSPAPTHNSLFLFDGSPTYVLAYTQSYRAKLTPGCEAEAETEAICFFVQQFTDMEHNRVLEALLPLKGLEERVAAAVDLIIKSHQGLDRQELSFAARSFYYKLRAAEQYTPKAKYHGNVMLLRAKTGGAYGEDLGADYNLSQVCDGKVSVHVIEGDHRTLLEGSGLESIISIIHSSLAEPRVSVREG

inhibition at 100 µM [%] | SMILES
92.1 | Cc1ccc(C(=O)N2CCC(c3ccc(Cl)cc3)CC2)cc1NC(=O)NC(C)C [Example 359, 1-[5-[4-(4-chlorophenyl)piperidine-1-carbonyl]-2-methyl-phenyl]-3-propan-2-yl-urea]
97.3 | Cc1ccc(C(=O)N2CCC(c3ccc(S(N)(=O)=O)cc3)CC2)cc1NC(=O)NC(C)C [Example 360, 1-[2-methyl-5-[4-(4-sulfamoylphenyl)piperidine-1-carbonyl]phenyl]-3-propan-2-yl-urea]
101 | CNC(=O)Nc1cc(C(=O)N2CCC(c3ccc(C#N)cc3)CC2)ccc1C [Example 361, 1-[5-[4-(4-cyanophenyl)piperidine-1-carbonyl]-2-methyl-phenyl]-3-methyl-urea]
87.9 | CSc1ccc(C(=O)N2CCC(c3ccc(C#N)cc3)CC2)cc1NC(=O)NC(C)C [Example 362, 3-[5-[4-(4-cyanophenyl)piperidine-1-carbonyl]-2-methylsulfanylphenyl]-1-propan-2-ylurea]
84.7 | CSc1ccc(C(=O)N2CCC(c3ccc(C#N)cc3)CC2)cc1NC(=O)NCc1ccccc1 [Example 363, 3-benzyl-1-[5-[4-(4-cyanophenyl)piperidine-1-carbonyl]-2-methylsulfanylphenyl]urea]
84.1 | CC(C)NC(=O)Nc1cc(C(=O)N2CCC(c3ccc(C#N)cc3)CC2)ccc1S(C)(=O)=O [Example 364, 3-[5-[4-(4-cyanophenyl)piperidine-1-carbonyl]-2-methylsulfonylphenyl]-1-propan-2-ylurea]
82.5 | COCc1ccc(C(=O)N2CCC(c3ccc(C#N)cc3)CC2)cc1NC(=O)NC(C)C [Example 365, 3-[5-[4-(4-cyanophenyl)piperidine-1-carbonyl]-2-(methoxymethyl)phenyl]-1-propan-2-ylurea]
101 | Cc1ccc(C(=O)N2CCC(c3ccc(C#N)cc3)CC2)cc1NC(N)=O [Example 366, [5-[4-(4-cyanophenyl)piperidine-1-carbonyl]-2-methylphenyl]urea]
107 | Cc1ccc(C(=O)N2CCC(c3ccc(C#N)cc3)CC2)cc1NC(=O)NCc1ncc(F)cc1F [Example 367, 1-[5-[4-(4-cyanophenyl)piperidine-1-carbonyl]-2-methylphenyl]-3-[(3,5-difluoropyridin-2-yl)methyl]urea]
110 | Cc1ccc(C(=O)N2CCC(c3ccc(C#N)cc3)CC2)cc1NC(=O)NC(C)c1ccccn1 (stereo not drawn) [Example 368, 1-[5-[4-(4-cyanophenyl)piperidine-1-carbonyl]-2-methylphenyl]-3-(1-pyridin-2-ylethyl)urea]
88.5 | Cc1ccc(C(=O)N2CCC(c3ccc(C#N)cc3)CC2)cc1NC(=O)NC(Cc1ccc(F)cc1)C(=O)O (stereo not drawn) [Example 369, 2-[[5-[4-(4-cyanophenyl)piperidine-1-carbonyl]-2-methylphenyl]carbamoylamino]-3-(4-fluorophenyl)propanoic acid]
106 | Cc1ccc(C(=O)N2CCC(c3ccc(C#N)cc3)CC2)cc1NC(=O)NC[C@@H](NC(=O)OC(C)(C)C)C(=O)O [Example 370, (2R)-3-[[5-[4-(4-cyanophenyl)piperidine-1-carbonyl]-2-methylphenyl]carbamoylamino]-2-[(2-methylpropan-2-yl)oxycarbonylamino]propanoic acid]
79 | Cc1ccc(C(=O)N2CCC(c3ccc(C#N)cc3)CC2)cc1NC(=O)NC(C(=O)O)C(C)C (stereo not drawn) [Example 371, 2-[[5-[4-(4-cyanophenyl)piperidine-1-carbonyl]-2-methylphenyl]carbamoylamino]-3-methylbutanoic acid]
71.8 | Cc1ccc(C(=O)N2CCC(c3ccc(S(C)(=O)=O)cc3)CC2)cc1NC(=O)NC(C)C [Example 374, 1-[2-methyl-5-[4-(4-methylsulfonylphenyl)piperidine-1-carbonyl]phenyl]-3-propan-2-ylurea]
68.4 | Cc1ccc(NC(=O)NC(C)(C)C)cc1C(=O)N1CCC(c2ccc(C#N)cc2)CC1 [Example 376, 3-tert-butyl-1-[3-[4-(4-cyanophenyl)piperidine-1-carbonyl]-4-methylphenyl]urea]
71.1 | CC(C)NC(=O)Nc1ccc(F)c(C(=O)N2CCC(c3ccc(C#N)cc3)CC2)c1 [Example 377, 3-[3-[4-(4-cyanophenyl)piperidine-1-carbonyl]-4-fluorophenyl]-1-propan-2-ylurea]
73.2 | Cc1ccc(NC(=O)NCc2ccc(C#N)cc2)cc1C(=O)N1CCC(c2ccc(C#N)cc2)CC1 [Example 378, 3-[(4-cyanophenyl)methyl]-1-[3-[4-(4-cyanophenyl)piperidine-1-carbonyl]-4-methylphenyl]urea]
73.3 | Cc1ccc(NC(=O)NCc2ccncc2)cc1C(=O)N1CCC(c2ccc(C#N)cc2)CC1 [Example 379, 1-[3-[4-(4-cyanophenyl)piperidine-1-carbonyl]-4-methylphenyl]-3-(pyridin-4-ylmethyl)urea]

inhibition at 100 µM [%] | SMILES
74.8 | Cc1ccc(NC(=O)N(C)C)cc1C(=O)N1CCC(c2ccc(C#N)cc2)CC1 [Example 380, 3-[3-[4-(4-cyanophenyl)piperidine-1-carbonyl]-4-methylphenyl]-1,1-dimethylurea]
71.1 | Cc1ccc(C(=O)N2CCC(c3ccc(C#N)cc3)CC2)cc1NC(=O)N(C)Cc1ccccc1 [Example 381, 1-benzyl-3-[5-[4-(4-cyanophenyl)piperidine-1-carbonyl]-2-methylphenyl]-1-methylurea]
73.6 | Cc1ccc(C(=O)N2CCC(c3ccc(C#N)cc3)CC2)cc1NC(=O)NC1CONC1=O (stereo not drawn) [Example 383, 1-[5-[4-(4-cyanophenyl)piperidine-1-carbonyl]-2-methylphenyl]-3-(3-oxo-1,2-oxazolidin-4-yl)urea]
97.6 | C#CC(C)(C)NC(=O)Nc1cc(C(=O)N2CCC(c3ccc(C#N)cc3)CC2)ccc1C [Example 384, 1-[5-[4-(4-cyanophenyl)piperidine-1-carbonyl]-2-methylphenyl]-3-(2-methylbut-3-yn-2-yl)urea]
60.8 | CCOC(=O)C(C)NC(=O)Nc1cc(C(=O)N2CCC(c3ccc(C#N)cc3)CC2)ccc1C (stereo not drawn) [Example 385, Ethyl 2-[[5-[4-(4-cyanophenyl)piperidine-1-carbonyl]-2-methylphenyl]carbamoylamino]-propanoate]
67.4 | CC(C)NC(=O)Nc1cc(C(=O)N2CCC(c3ccc(C#N)cc3)CC2)ccc1[S+](C)[O-] (stereo not drawn) [Example 386, 3-[5-[4-(4-cyanophenyl)piperidine-1-carbonyl]-2-methylsulfinylphenyl]-1-propan-2-ylurea]
72.9 | C[S+]([O-])c1ccc(C(=O)N2CCC(c3ccc(C#N)cc3)CC2)cc1NC(=O)NCc1ccccc1 (stereo not drawn) [Example 387, 3-benzyl-1-[5-[4-(4-cyanophenyl)piperidine-1-carbonyl]-2-methylsulfinylphenyl]urea]
83.9 | Cc1ccc(C(=O)N2CCC(c3ccc(C#N)cc3)CC2)cc1NC(=O)NC1CCCC1C(=O)O (stereo not drawn) [Example 388, 2-[[5-[4-(4-cyanophenyl)piperidine-1-carbonyl]-2-methylphenyl]carbamoylamino]-cyclopentane-1-carboxylic acid]
78.6 | Cc1ccc(C(=O)N2CCC(c3ccc(C#N)cc3)CC2)cc1NC(=O)NC1(C)CC1 [Example 389, 1-[5-[4-(4-cyanophenyl)piperidine-1-carbonyl]-2-methylphenyl]-3-(1-methylcyclopropyl)-urea]
90.6 | CC(=O)N1CCCC(NC(=O)Nc2cc(C(=O)N3CCC(c4ccc(C#N)cc4)CC3)ccc2C)C1 (stereo not drawn) [Example 390, 3-(1-acetylpiperidin-3-yl)-1-[5-[4-(4-cyanophenyl)piperidine-1-carbonyl]-2-methylphenyl]urea]
71 | Cc1ccc(C(=O)N2CCC(c3ccccc3)CC2)cc1NC(=O)NC(C)C [Example 391, 1-[2-methyl-5-(4-phenylpiperidine-1-carbonyl)phenyl]-3-propan-2-ylurea]
76.3 | Cc1ccc(C(=O)N2CCC(c3ccc(C#N)cc3)CC2)cc1NC(=O)N(C)CCO [Example 392, 3-[5-[4-(4-cyanophenyl)piperidine-1-carbonyl]-2-methylphenyl]-1-(2-hydroxyethyl)-1-methylurea]
65.8 | Cc1ccc(C(=O)N2CCC(c3ccc(C#N)cc3)CC2)cc1NC(=O)N(C)C1CCN(C)CC1 [Example 393, 3-[5-[4-(4-cyanophenyl)piperidine-1-carbonyl]-2-methylphenyl]-1-methyl-1-(1-methylpiperidin-4-yl)urea]
68.7 | Cc1ccc(C(=O)N2CCC(c3ccc(C#N)cc3)CC2)cc1NC(=O)N(C)CCN(C)C [Example 394, 3-[5-[4-(4-cyanophenyl)piperidine-1-carbonyl]-2-methylphenyl]-1-(2-dimethylaminoethyl)-1-methylurea]
71.6 | Cc1ccc(C(=O)N2CCC(c3ccc(C#N)cc3)CC2)cc1NC(=O)N(CCO)C(C)C [Example 395, 3-[5-[4-(4-cyanophenyl)piperidine-1-carbonyl]-2-methylphenyl]-1-(2-hydroxyethyl)-1-propan-2-ylurea]
62.9 | Cc1ccc(C(=O)N2CCC(c3ccc(C#N)cc3)CC2)cc1NC(=O)N(C)C1CCOCC1 [Example 396, 3-[5-[4-(4-cyanophenyl)piperidine-1-carbonyl]-2-methylphenyl]-1-methyl-1-(oxan-4-yl)urea]
63.7 | CCCN(C(=O)Nc1cc(C(=O)N2CCC(c3ccc(C#N)cc3)CC2)ccc1C)C1CCS(=O)(=O)C1 (stereo not drawn) [Example 397, 3-[5-[4-(4-cyanophenyl)piperidine-1-carbonyl]-2-methylphenyl]-1-(1,1-dioxothiolan-3-yl)-1-propylurea]
66.3 | Cc1ccc(C(=O)N2CCC(c3ccc(C#N)cc3)CC2)cc1NC(=O)N(C)CC(=O)NC(C)C [Example 398, 2-[[5-[4-(4-cyanophenyl)piperidine-1-carbonyl]-2-methylphenyl]carbamoyl-methylamino]-N-propan-2-ylacetamide]
